Results from ChEMBL document CHEMBL1208791, “Optimization of alpha-ketoamide based p38 inhibitors through modifications to the region that binds to the allosteric site” (Bioorg Med Chem Lett, 2010).

Experiments:
[1] = target: T1, Mitogen-activated protein kinase 14 (Homo sapiens, UniProt Q16539); experiment: Inhibition of phospho-p38 alpha activity by ELISA
[2] = target: T1, Mitogen-activated protein kinase 14; experiment: Inhibition of p38 alpha activity by ELISA
[3] = Half life in rat at 10 mg/kg, iv or 30 mg/kg, po; assay type: ADME, organism-based; details: in vivo
[4] = AUC in rat at 10 mg/kg, iv or 30 mg/kg, po; assay type: ADME, organism-based; details: plasma
[5] = Clearance in rat at 10 mg/kg, iv or 30 mg/kg, po; assay type: ADME, organism-based; details: in vivo
[6] = Volume of distribution at steady state in rat at 10 mg/kg, iv or 30 mg/kg, po; assay type: ADME, organism-based; details: in vivo, read-out: Vdss
[7] = Tmax in rat at 10 mg/kg, iv or 30 mg/kg, po; assay type: ADME, organism-based; details: in vivo
[8] = Oral bioavailability in rat at 30 mg/kg, po; assay type: ADME, organism-based; details: in vivo
[9] = Cmax in rat at 10 mg/kg, iv or 30 mg/kg, po; assay type: ADME, organism-based; details: in vivo
Blood = experiment: Ex vivo inhibition of […]-alpha-production in human whole blood; assay type: functional, tissue-based
THP-1 = experiment: Inhibition of LPS-induced […]-alpha-production in immortalized human THP1 cells; assay type: functional, cell-based

T1 sequence (Q16539 whole entry): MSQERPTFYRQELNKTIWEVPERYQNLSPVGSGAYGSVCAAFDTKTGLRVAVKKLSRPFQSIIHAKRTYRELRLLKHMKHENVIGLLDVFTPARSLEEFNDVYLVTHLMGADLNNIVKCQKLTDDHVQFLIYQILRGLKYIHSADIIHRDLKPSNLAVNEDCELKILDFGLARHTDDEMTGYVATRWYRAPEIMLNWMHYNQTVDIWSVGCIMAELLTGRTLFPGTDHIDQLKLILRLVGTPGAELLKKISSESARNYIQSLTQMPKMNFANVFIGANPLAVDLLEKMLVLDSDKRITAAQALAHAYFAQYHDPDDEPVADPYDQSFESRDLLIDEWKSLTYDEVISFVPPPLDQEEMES

Structure (SMILES) | IC50 [1] | IC50 [2] | other results
COc1c(NC(=O)C(=O)c2ccc(Nc3ccncn3)c3ccccc23)cc(C(C)(C)C)cc1NS(C)(=O)=O | 1 nM | 72 nM | 
CC(C)(C)c1cc(C#N)cc(NC(=O)C(=O)c2ccc(OCCN3CCOCC3)c3ccccc23)c1 |  | 33 nM | 
COc1c(NC(=O)C(=O)c2ccc(OCCN3CCOCC3)c3ccccc23)cc(C(C)(C)C)cc1NS(C)(=O)=O [ITX-5061 FREE BASE] | 38 nM | 59 nM | half-life [3]: 210 min; AUC [4]: 14000 ng·h/mL; clearance [5]: 26.7 mL/min/kg; Vd [6]: 5.2 L/kg; Tmax [7]: 3 h; bioavailability [8]: 77%; Cmax [9]: 1300 ng/mL
COc1c(NC(=O)C(O)c2ccc(OCCN3CCOCC3)c3ccccc23)cc(C(C)(C)C)cc1NS(C)(=O)=O (centres undefined) |  | 390 nM | 
COc1c(NC(=O)C(=O)c2ccc(OCCN3CCOCC3)c3ccccc23)cc(C(C)(C)C)cc1C(=O)NC1CC1 | 140 nM | 71 nM | 
COc1c(NC(=O)Cc2ccc(OCCN3CCOCC3)c3ccccc23)cc(C(C)(C)C)cc1NS(C)(=O)=O | 90 nM | 190 nM | 
CC(C)(C)c1cccc(NC(=O)C(=O)c2ccc(OCCN3CCOCC3)c3ccccc23)c1 | 310 nM | 250 nM | 
COc1ccc(C(C)(C)C)cc1NC(=O)C(=O)c1ccc(OCCN2CCOCC2)c2ccccc12 |  | 250 nM | 
COc1c(C#N)cc(C(C)(C)C)cc1NC(=O)C(=O)c1ccc(OCCN2CCOCC2)c2ccccc12 |  | 42 nM | half-life [3]: 588 min; AUC [4]: 15000 ng·h/mL; clearance [5]: 18.3 mL/min/kg; Vd [6]: 4.9 L/kg; Tmax [7]: 0.5 h; bioavailability [8]: 57%; Cmax [9]: 2400 ng/mL
COc1c(Cl)cc(C(C)(C)C)cc1NC(=O)C(=O)c1ccc(OCCN2CCOCC2)c2ccccc12 |  | 70 nM | 
COc1c(NC(=O)C(=O)c2ccc(Nc3ccncc3)c3ccccc23)cc(C(C)(C)C)cc1NS(C)(=O)=O | 2 nM | 25 nM | 
COc1c(C#N)cc(C(C)(C)C)cc1NC(=O)C(=O)c1ccc(Nc2ccncc2)c2ccccc12 |  | 51 nM | IC50 (Blood): 150 nM
CNc1nccc(Nc2ccc(C(=O)C(=O)Nc3cc(C(C)(C)C)cc(NS(C)(=O)=O)c3OC)c3ccccc23)n1 | 21 nM |  | IC50 (THP-1): 8 nM; IC50 (Blood): 100 nM
COc1c(C#N)cc(C(C)(C)C)cc1NC(=O)C(=O)c1ccc(-c2cccnc2)c2ccccc12 |  | 78 nM | 
COc1c(C#N)cc(C(C)(C)C)cc1NC(=O)C(=O)c1ccc(-c2ccncc2)c2ccccc12 |  | 60 nM | 
COc1c(C#N)cc(C(C)(C)C)cc1NC(=O)C(=O)c1ccc(-c2ccnc(C)c2)c2ccccc12 |  | 22 nM | 
COc1c(C#N)cc(C(C)(C)C)cc1NC(=O)C(=O)c1ccc(-c2ccc(F)nc2)c2ccccc12 |  | 190 nM | 
COc1c(NC(=O)C(=O)c2ccc(Oc3ccnc(N4CCOCC4)n3)c3ccccc23)cc(C(C)(C)C)cc1NS(C)(=O)=O | 13 nM | 38 nM | 
N#Cc1cc(NC(=O)C(=O)c2ccc(OCCN3CCOCC3)c3ccccc23)cc(N2CCOCC2)c1 |  | 28 nM | 
COc1c(NC(=O)/C(=N/O)c2ccc(OCCN3CCOCC3)c3ccccc23)cc(C(C)(C)C)cc1NS(C)(=O)=O |  | 200 nM | 
